Measurements from PubChem BioAssay (NCI).
Where “and” joins values, the source holds several entries; their conditions need not be identical. Equal entries are not always repeated.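 Briefly, cells in 96-well plates were exposed to five compound concentrations for 48 h, and endpoints were estimated by linear interpolation. At the GI50, growth is halved. TGI marks complete inhibition of growth.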

What was measured:
Assay in all cases: NCI-60 cell line screen, 48 h
786-0 renal = tested on: 786-0 renal
BT-549 breast = tested on: BT-549 breast
CAKI-1 renal = tested on: CAKI-1 renal
M14 melanoma = tested on: M14 melanoma
MDA-MB-435 = tested on: MDA-MB-435
NCI-H226 lung = tested on: NCI-H226 lung
NCI/ADR-RES ovarian = tested on: NCI/ADR-RES ovarian
UO-31 renal = tested on: UO-31 renal

| SMILES | GI50 (786-0 renal) | TGI (786-0 renal) | GI50 (BT-549 breast) | TGI (BT-549 breast) | GI50 (CAKI-1 renal) | TGI (CAKI-1 renal) | GI50 (M14 melanoma) | GI50 (MDA-MB-435) | TGI (MDA-MB-435) | GI50 (NCI-H226 lung) | TGI (NCI-H226 lung) | GI50 (NCI/ADR-RES ovarian) | TGI (NCI/ADR-RES ovarian) | GI50 (UO-31 renal) | TGI (UO-31 renal) | TGI (M14 melanoma) |
| --- | --- | --- | --- | --- | --- | --- | --- | --- | --- | --- | --- | --- | --- | --- | --- | --- |
| CCN(CC)c1ccc2nc3c4ccccc4c(=NC(=O)c4ccccc4-c4c5ccc(N(CC)CC)cc5[o+]c5cc(N(CC)CC)ccc45)cc-3oc2c1 | 2.41 µM | 6.68 µM | 14 µM | 30.8 µM | 4.95 µM | 18.9 µM | 2.47 µM | 1.93 µM | 4.33 µM | 15.4 µM | 38.8 µM | 2.19 µM | 10.6 µM | 1.49 µM | 15 µM |  |
| CC(C)CNc1nc(N=[N+]=[N-])nc(NCC(C)C)n1 | > 10 µM | > 10 µM | > 10 µM | > 10 µM | > 10 µM | > 10 µM | > 10 µM | > 10 µM | > 10 µM | > 10 µM | > 10 µM | > 10 µM | > 10 µM | > 10 µM | > 10 µM | > 10 µM |
| CC[C@@]1(OC(=O)CN)C(=O)OCc2c1cc1n(c2=O)Cc2cc3c(N)c4c(cc3nc2-1)OCO4 | < 0.0001 µM | 0.0093 µM | 0.24 µM |  | < 0.0001 µM |  | < 0.0001 µM | 0.00328 µM and 0.0183 µM |  | < 0.0001 µM | 0.109 µM and 0.0279 µM | 0.000145 µM | 0.0193 µM | < 0.0001 µM |  | 0.0139 µM |
| CS[C@@]1(C(=O)Nc2ccc3[nH]nc(-c4ccc(OC(C)C)nc4)c3c2)CCN(CC(=O)N2CC=C(c3ccc(-c4ncn(C)n4)cc3)CC2)C1 | 5.27 µM | > 100 µM | 9.43 µM | > 100 µM | > 100 µM | > 100 µM | 0.032 µM | 0.355 µM | > 100 µM | > 100 µM | > 100 µM | 12.6 µM | > 100 µM | 1.01 µM | > 100 µM |  |
| O=C(/C=C/c1cccc(B(O)O)c1)c1cccc(B(O)O)c1 | 1.75 µM | 3.71 µM | 1.06 µM | 2.37 µM | 2.85 µM | 12.6 µM | 1.51 µM | 1.9 µM | 4.88 µM | 1.91 µM | 4.14 µM | 1.99 µM | 5.47 µM | 1.71 µM | 3.36 µM | 3.33 µM |
| COc1cnc2c(c1)C(=O)c1c-2n(CCCN2CCN(CCO)CC2)c(=O)c2cc([N+](=O)[O-])ccc12 | 1.61 µM | 3.13 µM | 2.9 µM | 18.9 µM | 1.34 µM | 15.8 µM | 0.769 µM | 1.97 µM | 4.66 µM | 0.964 µM | 20 µM | 1.29 µM | 3.86 µM | 3.32 µM | 20.8 µM | 2.49 µM |
| O=[N+]([O-])c1ccc(-c2ccccc2)c([As](=O)(O)O)c1 | 17.7 µM | 36.4 µM | 47.2 µM | > 100 µM | 13.2 µM | 98.1 µM | 26.6 µM | 21.9 µM | > 100 µM | 18.5 µM | 69.4 µM | 22.6 µM | > 100 µM | 12.3 µM | 44.8 µM | > 100 µM |
| Cc1c(N2C(=O)/C(=C\c3ccc(N(C)C)cc3)N=C2c2ccccc2)c(=O)n(-c2ccccc2)n1C | > 100 µM | > 100 µM | 63.7 µM | > 100 µM | > 100 µM | > 100 µM | > 100 µM | > 100 µM | > 100 µM | 72.2 µM | > 100 µM | 99.5 µM | > 100 µM | 40.6 µM | > 100 µM | > 100 µM |
| O=C(NO)c1cnc(N2CCN(S(=O)(=O)c3ccc4ccccc4c3)CC2)nc1 | 0.193 µM | 2.83 µM | 0.803 µM | 53.4 µM | 0.114 µM | 0.328 µM | 0.0468 µM | 0.0456 µM | 0.394 µM | 0.157 µM | 2.55 µM | 0.0324 µM |  | 0.0597 µM | 0.854 µM | 5.75 µM |
| CC(=O)OCC(=O)C1(O)C(C)CC2C3C=C(C)C4=Cc5c(cnn5-c5ccccc5)CC4(C)C3C(O)CC21C (configuration not stated) | 1.49 µM | 3.22 µM | 1.25 µM | 3.85 µM | 2.35 µM | 10.1 µM | 1.76 µM | 2.33 µM | 7.33 µM | 2.16 µM | 11.2 µM | 1.94 µM | 8.73 µM | 2.47 µM | 8.43 µM | 3.69 µM |
| Brc1ccc(Br)nn1 | 2.11 µM | 4.75 µM | 1.52 µM | 2.96 µM | 1.96 µM | 5.07 µM | 1.39 µM | 1.75 µM | 3.55 µM | 2.28 µM | 5.57 µM | 2 µM | 5.78 µM | 2.62 µM | 14.9 µM | 2.82 µM |
| CCOC(=O)C(Cc1ccc(OC)cc1)C(=O)OCC | 6.19 µM | 18.7 µM | 3.25 µM | 13.5 µM | 4.67 µM | 16.6 µM | 8.17 µM | 3.97 µM | 18 µM | 12.4 µM | 30.3 µM | 3.77 µM | 19 µM | 5.63 µM | 19.7 µM | 20.7 µM |
| CCc1ccccc1-n1c(N)c(C#N)c(-c2ccc(OC)c(OC)c2)c(C#N)c1=O | 18.8 µM | 33.3 µM | 19.4 µM | 49.5 µM | > 100 µM | > 100 µM | 19.7 µM | 34.7 µM | > 100 µM | 17.1 µM | 41.8 µM | 31.9 µM | > 100 µM | 25.5 µM | > 100 µM | 56 µM |
| C[C@@H](Oc1cc(-c2cnn(C3CC4(CCCNC4)C3)c2)cnc1N)c1c(Cl)ccc(F)c1Cl (some centres not stated) | 1.64 µM | 3.19 µM | 1.95 µM | 3.72 µM | 2.08 µM | 6.62 µM | 1.25 µM | 0.77 µM | 2.18 µM | 2.29 µM | 9.76 µM | 2.25 µM | 5.59 µM | 1.76 µM | 3.9 µM | 2.66 µM |
